Results on 7 compounds are retold here after ChEMBL document CHEMBL1147283, “Bullatacin and bullatacinone: two highly potent bioactive acetogenins from Annona bullata” (J Nat Prod, 1989).

Molecules are shown by their SMILES. Values after ≈ are worked out from the molar mass of the structure shown. Active and inactive are the calls of the source. The calls are words filed in the database; no cut-off is given here.

Data set [1] is described as follows: Toxicity in brine shrimp. It is filed as organism-based. To be noted: artemia, in vivo.
Data set [2] can be described thus: (§1) Cytotoxicity against mouse 9PS cells. The data set is classed as functional. Particulars: read-out: ED50 (the source's name).
The nature of data set [3]: (§2) Cytotoxicity against human 9KB cells. It is filed as functional.
Another data set deals with A549. In words: Cytotoxicity against human A549 cells. The data set is classed as functional, cell-based. Particulars: for EC50: Homo sapiens, A549, read-out: ED50 (the source's name).
In a further data set the test system is HT-29. Briefly: Cytotoxicity against human HT-29 cells. The data set is classed as functional, cell-based.
The test system of data set [4] is Aphis gossypii. Briefly: Pesticidal activity against Aphis gossypii at 10 ppm relative to control. The data set is classed as functional.
For data set [5], the system named is Aphis gossypii. Briefly: Pesticidal activity against Aphis gossypii at 100 ppm relative to control. The data set is classed as functional.
In data set [6] the test system is Aphis gossypii. In words: Pesticidal activity against Aphis gossypii at 400 ppm relative to control. It is filed as functional.
Data set [7] concerns Aedes aegypti. Briefly: Pesticidal activity against Aedes aegypti larvae at 0.5 ppm relative to control. The data set is classed as functional.
Data set [8] concerns Aedes aegypti. In words: Pesticidal activity against Aedes aegypti larvae at 1 ppm relative to control. The data set is classed as functional.
In data set [9] the test system is Aedes aegypti. In words: Pesticidal activity against Aedes aegypti larvae at 10 ppm relative to control. It is filed as functional.
Data set [10] concerns Spodoptera eridania. In words: Pesticidal activity against Spodoptera eridania at 100 ppm relative to control. The data set is classed as functional.
Data set [11] relates to Spodoptera eridania. Briefly: Pesticidal activity against Spodoptera eridania at 400 ppm relative to control. It is filed as functional.
Data set [12] deals with Diabrotica undecimpunctata. In words: Pesticidal activity against Diabrotica undecimpunctata howardi at 6 ppm relative to control. It is filed as functional.
In data set [13] the test system is Diabrotica undecimpunctata. Briefly: Pesticidal activity against Diabrotica undecimpunctata howardi at 24 ppm relative to control. The data set is classed as functional.
Data set [14] has as its system Tetranychus urticae. In words: Pesticidal activity against Tetranychus urticae at 10 ppm relative to control. The data set is classed as functional.
The test system of data set [15] is Tetranychus urticae. In words: Pesticidal activity against Tetranychus urticae at 100 ppm relative to control. The data set is classed as functional.
The test system of data set [16] is Tetranychus urticae. In words: Pesticidal activity against Tetranychus urticae at 400 ppm relative to control. It is filed as functional.
Data set [17] is described as follows: Displacement of radiolabeled ligand form protein kinase C at 10 uM.
The next data set is filed under the species Mus musculus. The description is as §1. It is filed as functional.
The test system of a further data set is 9KB. The data set is described as §2. The data set is classed as functional.

As a reminder, the LC50 is the concentration that kills 50% of the test population. Compound `CCCCCCCCCC[C@H](O)[C@H]1CC[C@H]([C@H]2CC[C@H]([C@H](O)CCCCCCCCCC[C@@H]3CC(CC(C)=O)C(=O)O3)O2)O1` (stereo partly specified) [BULLATACINONE] displayed an LC50 in data set [1] of 0.003 µg/mL (≈ 0.00482 µM). Besides, the EC50 in [2] is 0.00423 µg/mL (≈ 0.00679 µM); in the data set on A549 it was 0.001 µg/mL (≈ 0.00161 µM). In addition, the ED50 is on record as under 1 ×10⁻¹² ug/ml in data set [3] and 5 ×10⁻¹² ug/ml in the data set on HT-29. In addition, the Activity in the data set on Aphis gossypii [4], in the data set on Aphis gossypii [5], with Aphis gossypii [6], with Aedes aegypti [7], in the data set on Aedes aegypti [8] and in the data set on Aedes aegypti [9] was 0% each time. The Activity (with Spodoptera eridania [10]; with Spodoptera eridania [11]; in data set [12]; in data set [13]; with Tetranychus urticae [14]; in the data set with Tetranychus urticae [15]) was 0% throughout. For the same compound, the Activity in the data set with Tetranychus urticae [16] turned out to be 0%.
The compound `CCCCCCCCCC[C@@H](O)[C@@H]1CC[C@@H]([C@@H]2CC[C@@H]([C@H](O)CCCCCCCCCC(O)CC3=CC(C)OC3=O)O2)O1` (stereo partly specified) [BULLATACIN] gave an Activity in [17] of 7%.
The compound `C=C1C[C@@]23CC[C@H]4[C@@](C)(CCC[C@]4(C)C(=O)O)[C@@H]2CCC1C3` displayed a median lethal concentration (LC50) in data set [1] of 0.87 µg/mL (≈ 2.88 µM).
As to `O=C1c2ccccc2-c2c3c(cc4ccnc1c24)OCO3` [LIRIODENINE], in data set [1], the 50% lethal concentration (LC50) was 1.1 µg/mL (≈ 4 µM). The outcome in the data set listed under Mus musculus and in the data set with 9KB was inactive.
In turn, `CCCCCCCCCC[C@H](OC(C)=O)[C@H]1CC[C@H]([C@H]2CC[C@H]([C@@H](CCCCCCCCCC[C@@H]3C[C@@H](CC(C)=O)C(=O)O3)OC(C)=O)O2)O1` [BULLATACINONE DIACETATE] registered an LC50 in data set [1] of over 10 µg/mL. Further, the EC50 in data set [2] is 0.0422 µg/mL; in [3] (Homo sapiens, 9KB, read-out: ED50 (the source's name)), 0.005 µg/mL; in the data set on A549 it was 0.028 µg/mL. In the data set on HT-29, this compound had an ED50 of 1 ×10⁻¹ umol/L.
Compound `CCCCCCCCCC[C@H](O)[C@H]1CC[C@H]([C@H]2CC[C@H]([C@H](O)CCCCCCCCCC[C@@H](O)CC3C[C@H](C)OC3=O)O2)O1` (stereo partly specified) [DIHYDROBULLATACIN] registered a median lethal concentration (LC50) in data set [1] of 0.0145 µg/mL (≈ 0.0232 µM). Besides, the ED50 is under 1 ×10⁻⁶ ug/ml in the data set on A549 and 3.33 ×10⁻⁵ ug/ml in the data set on HT-29.
In data set [1], `CCCCCCCCCC[C@H](OC(C)=O)[C@H]1CC[C@H]([C@H]2CC[C@H]([C@@H](CCCCCCCCCC[C@H](CC3=C[C@H](C)OC3=O)OC(C)=O)OC(C)=O)O2)O1` [BULLATACIN TRIACETATE] came in with an LC50 of 5.7 µg/mL. Also, the EC50 in data set [2] is 0.00389 µg/mL; with A549 it was 0.002 µg/mL; with HT-29 (Homo sapiens, HT-29, read-out: ED50 (the source's name)), over 0.1 µg/mL. For the same compound, the ED50 in [3] amounted to 6.85 ×10⁻⁷ ug/ml.
